Where two headings read alike, the source gives them in different places.
How the values were obtained:
[1] = test system: LEUKEMIA cancer cell lines; settings: log of concentration causing 50% lethality; arithmetic average of six to eight leukemia cell lines
[2] = test system: NSC LUNG cancer cell lines; settings: log of concentration causing 50% lethality; arithmetic average of six to eight NSC lung cell lines
COLON cancer cell lines = settings: log of concentration causing 50% lethality; arithmetic average of six to eight colon cell lines
CNS cancer cell lines = settings: log of concentration causing 50% lethality; arithmetic average of six to eight CNS cell lines
[3] = test system: MELANOMA cancer cell lines; settings: log of concentration causing 50% lethality; arithmetic average of six to eight melanoma cell lines
[4] = test system: OVARIAN cancer cell lines; settings: log of concentration causing 50% lethality; arithmetic average of six to eight ovarian cell lines
Procedure: (§1) For each histologic cancer type, the average −log LC50 value was determined from an NCI panel consisting of six to eight human cancer cell lines. {Paull, D. K.; Shoemaker, R. H.; Hodes, L.; Monks, A.; Scudiero, D. A.; Rubinstein, L.; Plowman, J.; Boyd, M. R. Display and Analysis of Differential Activity of Drugs Against Human Tumor Cell Lines: Development of Mean Graph and COMPARE Algorithm.

RENAL cancer cell lines = settings: log of concentration causing 50% lethality; arithmetic average of six to eight renal cell lines
Procedure: as §1

[5] = test system: PROSTATE cancer cell lines; settings: log of concentration causing 50% lethality; arithmetic average of six to eight prostate cell lines
Procedure: as §1

BREAST cancer cell lines = settings: log of concentration causing 50% lethality; arithmetic average of six to eight breast cell lines
Procedure: as §1

B-16 melanoma = settings: for in vivo activity (effect on tumor mass), in words: B16 syngraft, dosing on days 1, 5, and 9 after implantation of 10^5 cells; for area under the tumor-growth curve (AUC): control 11.39
Procedure: This compound was studied at three dose levels: 2, 3 and 5 mg/Kg IP on days 1, 5, and 9 after tumor implantation into the front flank muscle. Shown in the plot are the AUC values as a function of time for each dosage. The control was obtained with drug-free animals.

rat liver DT-diaphorase = biological target: T1, rat liver DT-diaphorase (Rattus norvegicus, UniProt P05982); settings: FIG. 2
T1 sequence (P05982 2-274 limits assumed): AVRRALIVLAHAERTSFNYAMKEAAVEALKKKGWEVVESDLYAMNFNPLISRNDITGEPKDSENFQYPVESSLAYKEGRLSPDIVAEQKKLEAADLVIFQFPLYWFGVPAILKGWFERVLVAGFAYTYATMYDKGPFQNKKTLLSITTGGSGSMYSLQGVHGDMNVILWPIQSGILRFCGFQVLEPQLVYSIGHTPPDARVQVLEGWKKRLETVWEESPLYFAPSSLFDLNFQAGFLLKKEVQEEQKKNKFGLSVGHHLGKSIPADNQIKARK

600 bp calf thymus DNA = test: Alkylation of DNA by reduced indoloquinones; settings: FIG. 2
[6] = 1 mg/Kg IP on days 1, 5, and 9 after tumor implantation
[7] = 3 mg/Kg IP on days 1, 5, and 9 after tumor implantation

SMILES | Log LC50 [1] [moles/liter] | Log LC50 [2] [moles/liter] | Log LC50 (COLON cancer cell lines) [moles/liter] | Log LC50 (CNS cancer cell lines) [moles/liter] | Log LC50 [3] [moles/liter] | Log LC50 [4] [moles/liter] | Log LC50 (RENAL cancer cell lines) [moles/liter] | Log LC50 [5] [moles/liter] | Log LC50 (BREAST cancer cell lines) [moles/liter] | in vivo activity (effect on tumor mass), in words (B-16 melanoma) | DT-diaphorase substrate activity, in words (rat liver DT-diaphorase) | % reductive alkylation of DNA, in words (600 bp calf thymus DNA) | area under the tumor-growth curve (AUC) (B-16 melanoma; [6]) | area under the tumor-growth curve (AUC) (B-16 melanoma; [7])
COC1CCc2c1[nH]c1c2C(=O)C(C)=C(N2CC2)C1=O (centres unmarked) [Cyclopent[b]indole 3d, 6-Aziridinyl-1,4-dihydro-3-methoxy-7-methyl-(2H) cyclopent[b]indole-5,8-dione] | −4.06 | −4.2 | −4.318 | −4.17 | −4.92 | >−4 | −4.58 | −4.46 | −4.33 |  |  |  |  | 
CC1=C(N2CC2)C(=O)c2c([nH]c(CO)c2C)C1=O [Indole 1b, 5-Aziridinyl-2-(hydroxymethyl)-3,6-dimethylindole-4,7-dione] | >−4 | −4.37 | −4.32 | >−4 | −5.39 | >−4 | −4.53 | −4.78 | −4.56 |  |  |  |  | 
CC(=O)OC1CCc2c3c(n(C(C)=O)c21)C(=O)C(N1CC1)=C(C)C3=O (centres unmarked) [Cyclopent[b]indole 14, 3-Acetoxy-4-acetyl-6-aziridinyl-1,4-Dihydro-7-methyl-(2H) cyclopent[b]indole-5,8-dione] | >−4 | −4.42 | −4.77 | −4.75 | −5.06 | −4.18 | −4.78 | −4.71 | −4.5 | enhances antitumor activity greatly | excellent substrate for DT-diaphorase | readily alkylates DNA |  | 
CC1=C(N2CC2)C(=O)c2[nH]c(CO)c(C)c2C1=O [Indole 2b, 6-Aziridinyl-2-(hydroxymethyl)-3,5-dimethylindole-4,7-dione] | >−4 | −4.1 | −4.2 | −4.05 | −4.4 | >−4 | −4.23 | −4.2 | −4.05 |  |  |  |  | 
CC1=C(N2CC2)C(=O)c2[nH]c3c(c2C1=O)CCC3=O [Cyclopent[b]indole 3e, 6-Aziridinyl-1,4-dihydro-7-methyl-(2H) cyclopent [b]indole-3,5,8-trione] | >−4 | −5.37 | −5.44 | −5.13 | −5.99 | −4.86 | −5.34 | −4.8 | −4.9 | completely inactive |  |  |  | 
CC1=C(N2CC2)C(=O)c2c([nH]c(C)c2C)C1=O [Indole 1a, 5-Aziridinyl-2,3,6-trimethylindole-4,7-dione] | >−4 | −4.29 | >−4 | >−4 | −4.42 | >−4 | >−4 | >−4 | >−4 |  |  |  |  | 
CC(=O)OCc1[nH]c2c(c1C)C(=O)C(N1CC1)=C(C)C2=O [Indole 1c, 2-(Acetoxymethyl)-5-aziridinyl-3,6-dimethylindole-4,7-dione] | >−4 | −4.48 | −5.08 | −4.83 | −5.64 | −4.46 | −4.54 | −5.01 | −4.57 | decreased tumor mass only at the 3 mg/kg dose |  |  | 10.94 | 15.82
CC(=O)OCc1[nH]c2c(c1C)C(=O)C(C)=C(N1CC1)C2=O [Indole 2c, 2-(Acetoxymethyl)-6-aziridinyl-3,5-dimethylindole-4,7-dione] | >−4 | −4.1 | >−4 | >−4 | −4.15 | >−4 | −4.14 | >−4 | >−4 | inactive at both concentrations |  |  | 13.83 | 8.59
CC1=C(N2CC2)C(=O)c2[nH]c3c(c2C1=O)CCC3O (centres unmarked) [Cyclopent[b]indole 3b, 6-Aziridinyl-1,4-Dihydro-3-hydroxy-7-methyl-(2H) cyclopent[b]indole-5,8-dione] | −4.06 | −4.22 | −4.45 | −4.54 | −4.85 | −4.05 | −4.73 | −4.5 | −4.47 |  |  |  |  | 
CC(=O)OC1CCc2c1[nH]c1c2C(=O)C(C)=C(N2CC2)C1=O (centres unmarked) [Cyclopent[b]indole 3c, 3-Acetoxy-6-aziridinyl-1,4-dihydro-7-methyl-(2H) cyclopent [b]indole-5,8-dione] | −4.3 | −4.65 | −4.85 | −4.7 | −4.99 | −4.366 | −4.72 | −4.63 | −4.53 | reduce the tumor mass substantially |  | highest % alkylation of DNA | 6.67 | 6.92

— patent US6846840B2, “Cytotoxic N-unsubstituted indoles and cyclopent(B)indoles and method of making and using same” (Arizona Board of Regents acting for and on behalf of …, priority 1999, dated 2005)
